Results: patent US12729377B2, “RNAi agents and compositions for inhibiting expression of angiopoietin-like 3 (ANGPTL3), and methods of use” (Arrowhead Pharmaceuticals, Inc., priority 2017, dated 2026)
In the oligonucleotide strings, read from the 5' end, every base follows the letter of its sugar. An asterisk marks phosphorothioate; unmarked linkages are phosphodiester. Other units and linkages are bracketed, terminal groups are in braces. A string of capitals states the bases alone. {NAG37} = tridentate N-acetyl-galactosamine targeting ligand, structure (NAG37)s; [invAb] = inverted abasic unit; m = 2'-O-methyl; f = 2'-fluoro

Key:
ANGPTL3 gene [1] = assay: Example 9: serum LDL in cynomolgus monkeys; format: in vivo, cynomolgus macaque (Macaca fascicularis); details: 2.0 mg/kg single SC injection day 1, cynos, n=3
Experimental: Additional ANGPTL3 RNAi agents were evaluated in cynomolgus monkeys. On day 1, cynomolgus macaque (Macaca fascicularis) primates (also referred to herein as “cynos”) were administered a single subcutaneous injection of 0.3 mL/kg (approximately 2-3 mL volume, depending on animal mass) containing 2.0 mg/kg of an ANGPTL3 RNAi agent, which included either AD05488, AD05743, AD05775, or AD05841, each formulated in saline. […] ANGPTL3 RNAi agents AD05488, AD05743, and AD05775 included nucleotide sequences designed to target position 304 of the ANGPTL3 gene. ANGPTL3 RNAi agent AD05841 included nucleotide sequences designed to target position 1035 of the ANGPTL3 gene.
Three (3) cynos in each group were tested (n=3). Blood samples were drawn and serum samples were analyzed on days −14 (predose), −7 (predose), 1 (pre-dose), 8, 15, 22, 29, and 35. Cynos were fasted overnight prior to each collection. ANGPTL3 protein levels in serum were measured by ELISA assay (R&D Systems), according to the manufacturer's recommendations. Triglycerides, total cholesterol, high-density lipoprotein (HDL), and low-density lipoprotein (LDL) in serum were measured on a Cobas® Integra 400 (Roche Diagnostics), according to the manufacturer's recommendations.
The ANGPTL3 protein levels, triglyceride levels, total cholesterol levels, HDL levels, and LDL levels for each animal were normalized. For normalization, the level of ANGPTL3 protein, triglyceride, HDL, and total cholesterol, respectively, for each animal at a time point, was divided by the average pre-treatment level of expression in that animal (in this case at days −14, −7, and 1) to determine the ratio of expression “normalized to pre-treatment.”

ANGPTL3 protein = assay: Example 6: serum ANGPTL3 protein by ELISA in mice; format: in vivo, C57bl/6 mice; details: for Avg ANGPTL3, normalized to pre-treatment and control: 0.5 mg/kg single SC injection on day 1, serum, n=3
Experimental: To assess the in vivo activity of additional ANGPTL3 RNAi agents that are designed to target position 304 on the ANGPTL3 gene, six- to eight-week-old female C57bl/6 mice were used. Pre-dose serum samples were taken at day −1 after a four hour fast. At day 1, each mouse was given a single subcutaneous administration of 200 μl containing 0.5 mg/kg (mpk) of an ANGPTL3 RNAi agent in D5W (dextrose in 5% water), or control (D5W) with no RNAi agent, according to the dosing groups recited in Table 25.
Each of the RNAi agents included a modified sequence and an N-acetyl-galactosamine-containing targeting ligand conjugated to the 5′ terminal end of the sense strand. (See Tables 3, 4, and 5 for modified sequences and targeting ligand structures). The injections were performed between the skin and muscle (i.e. subcutaneous injections) into the loose skin over the neck and shoulder area. Three (3) mice in each group were tested (n=3). Serum was collected on days 8, 15, 22, 30, and on day 43 for certain groups (i.e., Groups 1, 2, 5, and 10 only). Mice were fasted for four hours prior to each collection. ANGPTL3 protein levels in serum were measured by ELISA assay (R&D Systems), according to the manufacturer's recommendations. Triglycerides, total cholesterol, high-density lipoprotein (HDL), and low-density lipoprotein (LDL) in serum were measured on a Cobas® Integra 400 (Roche Diagnostics), according to the manufacturer's recommendations.
(§1) The ANGPTL3 protein levels, triglyceride levels, total cholesterol levels, HDL levels, and LDL levels for each animal were normalized. For normalization, the level of ANGPTL3 protein, triglyceride, HDL, and total cholesterol, respectively, for each animal at a time point, was divided by the pre-treatment level of expression in that animal (in this case at day −1) to determine the ratio of expression “normalized to pre-treatment.” Expression at a specific time point was then normalized to the D5W control group by dividing the “normalized to pre-treatment” ratio for an individual animal by the mean “normalized to pretreatment” ratio of all mice in the D5W control group.

ANGPTL3 gene [2] = assay: Example 10: serum LDL in mice; format: in vivo, C57bl/6 mice; details: 0.5 mg/kg sc
Experimental: To assess the in vivo activity of further ANGPTL3 RNAi agents that are designed to target position 304 on the ANGPTL3 gene, six- to eight-week-old female C57bl/6 mice were used. Pre-dose serum samples were taken at day −1 after a four hour fast. At day 1, each mouse was given a single subcutaneous administration of 200 μl containing 0.5 mg/kg (mpk) of an ANGPTL3 RNAi agent in D5W (dextrose in 5% water), or control (D5W) with no RNAi agent, according to the dosing groups recited in Table 47.
Each of the RNAi agents included a modified sequence and an N-acetyl-galactosamine-containing targeting ligand conjugated to the 5′ terminal end of the sense strand. (See Tables 3, 4, and 5 for modified sequences and targeting ligand structures). As noted above, each of the ANGPTL3 RNAi agents dosed in this study included nucleotide sequences designed to target the ANGPTL3 gene at position 304. The injections were performed between the skin and muscle (i.e. subcutaneous injections) into the loose skin over the neck and shoulder area. Three (3) mice in each group were tested (n=3). Serum was collected on days 8, 15, 22, 29, and for some groups on day 36 (i.e., Groups 1, 2, and 9-13 only). Mice were fasted for four hours prior to each collection. ANGPTL3 protein levels in serum were measured by ELISA assay (R&D Systems), according to the manufacturer's recommendations. Triglycerides, total cholesterol, high-density lipoprotein (HDL), and low-density lipoprotein (LDL) in serum were measured on a Cobas® Integra 400 (Roche Diagnostics), according to the manufacturer's recommendations.
as §1

## AD05488: RNAi agent duplex: antisense AM07235-AS, sense AM07234-SS (antisense mU*fA*mC*fUmGfAmUfCmAfAmAfUmAfUmGfUmUfGmAfG*mC; sense {NAG37}*[invAb]*mGmCmUmCmAmAmCmAfUfAfUmUmUmGmAmUmCmAmGmUmA*[invAb])
ANGPTL3 gene [1]; Day 8
  Average LDL Normalized to Pre-Treatment: 0.971
ANGPTL3 gene [1]; Day 15
  Average LDL Normalized to Pre-Treatment: 0.913
ANGPTL3 gene [1]; Day 22
  Average LDL Normalized to Pre-Treatment: 0.949
ANGPTL3 gene [1]; Day 29
  Average LDL Normalized to Pre-Treatment: 0.853
ANGPTL3 gene [1]; Day 35
  Average LDL Normalized to Pre-Treatment: 0.845
ANGPTL3 protein; Day 8
  Avg ANGPTL3, normalized to pre-treatment and control: 0.221
ANGPTL3 protein; Day 15
  Avg ANGPTL3, normalized to pre-treatment and control: 0.272
ANGPTL3 protein; Day 22
  Avg ANGPTL3, normalized to pre-treatment and control: 0.254
ANGPTL3 protein; Day 30
  Avg ANGPTL3, normalized to pre-treatment and control: 0.381
ANGPTL3 protein; Day 43
  Avg ANGPTL3, normalized to pre-treatment and control: 0.475
ANGPTL3 protein; through at least day 22, single 0.5 mg/kg subcutaneous, C57bl/6 mice
  reduction in ANGPTL3 protein levels: substantial reduction
ANGPTL3 gene [2]; Day 8
  Avg LDL Normalized to Pre-Treatment and Control: 0.836
ANGPTL3 gene [2]; Day 15
  Avg LDL Normalized to Pre-Treatment and Control: 0.969
ANGPTL3 gene [2]; Day 22
  Avg LDL Normalized to Pre-Treatment and Control: 0.901
ANGPTL3 gene [2]; Day 29
  Avg LDL Normalized to Pre-Treatment and Control: 0.762
ANGPTL3 gene [2]; Day 36
  Avg LDL Normalized to Pre-Treatment and Control: 0.863
